Experiments:
hCX3CR1 [1] = biological target: T1, hCX3CR1 (Homo sapiens, UniProt P49238); assay: Suchi5 assay (HEK/NatClytin/CNG/Suchi5 transiently transfected hCX3CR1, Fluo-8 Ca2+ readout); format: cell-based; parameters: expressed in transfected cells; stably expresses a Ca2+ sensitive photo-protein; details: Suchi5 assay, HEK/NatClytin/CNG/Suchi5 transfected with hCX3CR1; read-out: hCX3CR1 agonism EC50
T1 sequence (P49238 1-355): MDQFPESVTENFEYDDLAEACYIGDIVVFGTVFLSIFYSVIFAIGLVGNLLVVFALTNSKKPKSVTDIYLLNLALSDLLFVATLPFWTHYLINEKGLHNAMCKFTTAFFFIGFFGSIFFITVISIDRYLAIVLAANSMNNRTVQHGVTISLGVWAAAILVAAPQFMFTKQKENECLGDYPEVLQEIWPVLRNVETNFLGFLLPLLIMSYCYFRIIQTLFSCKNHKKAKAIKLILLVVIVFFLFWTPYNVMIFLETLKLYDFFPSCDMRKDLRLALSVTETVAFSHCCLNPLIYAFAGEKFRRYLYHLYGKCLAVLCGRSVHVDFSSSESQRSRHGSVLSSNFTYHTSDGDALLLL
Experimental: Buffers and reagents. PBS (D-PBS without calcium and magnesium; EuroClone); Trypsin (Trypsin 0.05%, EDTA 0.02% in PBS; EuroClone); Opti-MEM medium (Thermo Fisher); DMSO (Sigma); Standard tyrode buffer: in-house solution (130 mM NaCl, 5 mM KCl, 2 mM CaCl2), 1 mM MgCl2, 5 mM NaHCO3, 20 mM HEPES in water at pH 7.4; sterile filtered); Screen Quest™ Fluo-8 No Wash Calcium Assay Kit (AAt Bioquest®); Lipofectamine® 2000 Reagent (Thermo Fisher); Agonist: Recombinant Human Fractalkine (CX3CL1) (PeproTech); stock: 10 μM in standard Tyrode buffer/BSA 01%; stored at −20° C.
Cell line. The final cell line for CX3CR1-Suchi5 assay is HEK/NatClytin/CNG/Suchi5 transiently transfected hCX3CR1 cDNA. In this cell line native Gαi signaling is switched to Gαq pathway thanks to the overexpression of a Gαiq chimeric G protein (called Suchi5) to direct Gαi activation towards Ca^2+ release for measurement.
Assay protocol. Experiments are performed in 384 MTP format. Transiently transfected cells are seeded at 20,000 cells/well in 25 μl/well Opti-MEM medium without selection antibiotics in 384-well plates. 4-5-hours later 25 μL/well of complete medium with 20% of FBS are added to the cells. Twenty-four hours later, cells are assayed for the response to various compounds using a fluorescent Ca^2+ sensitive dye (FLUO8-No Wash Dye) as readout.
The experiment is performed in a 384-well format according to the following procedure: • 24h after seeding, remove the culture medium. • Load cells with 20 μL/well of 0.5X FLUO-8 No Wash Dye diluted in assay buffer. • Incubate cell plates for 1 hour at RT. • Inject 10 μL/w of 3× concentrated test compounds and controls in assay buffer at the FLIPRTETRA and monitor the kinetic response over a period of 90 seconds.
Data from FLIPRTETRA measurements are analyzed with the Genedata Screener© software.

hCX3CR1 [2] = biological target: T1, hCX3CR1; assay: Ga16 assay, CX3CR1 agonism, Ca2+ sensitive photo-protein readout (FLIPRTETRA); format: cell-based; parameters: expressed in transfected cells; stably expresses a Ca2+ sensitive photo-protein; details: human CX3CR1 cell line
Outline: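 Cells expressing human, mouse or rat CX3CR1 with a stably expressed Ca2+-sensitive photoprotein were loaded with 10 μM coelenterazine in tyrode buffer pH 7.4 for 3 h at room temperature. Agonist-mode luminescence kinetics were recorded for 90 s after compound injection on FLIPRTETRA. Dose-response runs were done in quadruplicate, with fractalkine as the reference agonist.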

Row | SMILES | EC50 (hCX3CR1 [1]) | EC50 (hCX3CR1 [2])
1 | CN(C)CC1(CNC(=O)c2cc3c(s2)CCCCCC3)CC(O)C1 (stereo not shown) [Example 31, N-[[1-[(dimethylamino)methyl]-3-hydroxycyclobutyl]methyl]-4,5,6,7,8,9-hexahydrocycloocta[b]thiophene-2-carboxamide] | 4.7 µM | 9.4 µM
2 | O=C(NCC1(CN2CCC(O)CC2)CCCC1)c1cc2c(s1)CCCCCC2 [Example 28, N-[[1-[(4-hydroxypiperidin-1-yl)methyl]cyclopentyl]methyl]-4,5,6,7,8,9-hexahydrocycloocta[b]thiophene-2-carboxamide] | 6.7 µM | 8.2 µM
3 | CN(C)CC1(CNC(=O)c2cc3c(s2)CCCCCC3)CCCC1 [Example 2, N-[[1-[(dimethylamino)methyl]cyclopentyl]methyl]-4,5,6,7,8,9-hexahydrocycloocta[b]thiophene-2-carboxamide] | 5.4 µM | 9.3 µM
4 | CC(C)(CNC(=O)c1cc2c(s1)CCCCCC2)CN1CCCCC1 [Example 13, N-(2,2-dimethyl-3-piperidin-1-ylpropyl)-4,5,6,7,8,9-hexahydrocycloocta[b]thiophene-2-carboxamide] | 9.6 µM | 12.3 µM
5 | O=C(NCC1(CN2CCCC2)CCC1)c1cc2c(s1)CCCCCC2 [Example 21, N-[[1-(pyrrolidin-1-ylmethyl)cyclobutyl]methyl]-4,5,6,7,8,9-hexahydrocycloocta[b]thiophene-2-carboxamide] | 4.7 µM | 6 µM
6 | O=C(NCC1(CN2CCCC(O)C2)CCCC1)c1cc2c(s1)CCCCCC2 (stereo not shown) [Example 27, N-[[1-[(3-hydroxypiperidin-1-yl)methyl]cyclopentyl]methyl]-4,5,6,7,8,9-hexahydrocycloocta[b]thiophene-2-carboxamide] | 7.5 µM | 11.3 µM
7 | CN(C)CC(C)(C)CNC(=O)c1cc2c(s1)CCCCCC2 [Example 70, N-[3-(dimethylamino)-2,2-dimethylpropyl]-4,5,6,7,8,9-hexahydrocycloocta[b]thiophene-2-carboxamide] | 9.3 µM | 17 µM
8 | CN(CCO)CC1(CNC(=O)c2cc3c(s2)CCCCCC3)CCC1 [Example 30, N-[[1-[[2-hydroxyethyl(methyl)amino]methyl]cyclobutyl]methyl]-4,5,6,7,8,9-hexahydrocycloocta[b]thiophene-2-carboxamide] | 36.1 µM | 10.2 µM
9 | O=C(NCC1(CN2CCC(O)C2)CCCC1)c1cc2c(s1)CCCCCC2 (racemic) [Example 25, N-[[1-[(3-hydroxypyrrolidin-1-yl)methyl]cyclopentyl]methyl]-4,5,6,7,8,9-hexahydrocycloocta[b]thiophene-2-carboxamide] | 11.8 µM | 10.5 µM
10 | CN(C)CC1(CNC(=O)c2cc3c(s2)CCCCCC3)CCC1 [Example 23, N-[[1-[(dimethylamino)methyl]cyclobutyl]methyl]-4,5,6,7,8,9-hexahydrocycloocta[b]thiophene-2-carboxamide] | 6.5 µM | 10.5 µM
11 | O=C(NCC1(CN2CCCC2)CC(O)C1)c1cc2c(s1)CCCCCC2 (stereo not shown) [Example 32, N-[[3-hydroxy-1-(pyrrolidin-1-ylmethyl)cyclobutyl]methyl]-4,5,6,7,8,9-hexahydrocycloocta[b]thiophene-2-carboxamide] | 5.8 µM | 9.1 µM
12 | O=C(NCC1(CN2CCCC2)CCCC1)c1cc2c(s1)CCCCCC2 [Example 5, N-[[1-(pyrrolidin-1-ylmethyl)cyclopentyl]methyl]-4,5,6,7,8,9-hexahydrocycloocta[b]thiophene-2-carboxamide] | 12.9 µM | 8.4 µM
13 | O=C(NCC1(CN2CCCCC2)CCCC1)c1cc2c(s1)CCCCCC2 [Example 15, N-[[1-(piperidin-1-ylmethyl)cyclopentyl]methyl]-4,5,6,7,8,9-hexahydrocycloocta[b]thiophene-2-carboxamide] | 5.5 µM | 19.3 µM
14 | CC(C)(CNC(=O)c1cc2c(s1)CCCCCC2)CN1CCCC1 [Example 1, N-(2,2-dimethyl-3-pyrrolidin-1-ylpropyl)-4,5,6,7,8,9-hexahydrocycloocta[b]thiophene-2-carboxamide] | 13.9 µM | 11.5 µM
